Laboratory results as given in patent publication US20220324803A1 (Teon Therapeutics, Inc., priority 2019, published 2022).
pKi: −log10 of the molar value.

Target: T1, human Prostanoid EP4 Receptor (EP4) (Homo sapiens, UniProt P35408)
T1 construct: expressed in transfected cells; host or cells: HEK293 (G418 selection); membranes prepared by differential centrifugation
Assay: Prostanoid EP4 binding assay (3H-prostaglandin E2 displacement, cell membranes)
Conditions: HEK293 cell membranes with human EP4, 3H-prostaglandin E2, 24° C.
Protocol: HEK293 cells transfected with human Prostanoid EP4 Receptor (EP4) are maintained in DMEM supplemented with L-Glutamine, 10% FBS and 300 μg/ml G418. Cells are harvested and membranes prepared by differential centrifugation, following lysis of the cells in the presence of protease inhibitors, for use in the receptor binding assay. EP4 binding assay is performed in 50 mM HEPES pH7.4, 5 mM MgCl2, 1 mM CaCl2) and 0.2% BSA. Testing compounds are diluted with DMSO to make 8-point 4-fold serial dilution. Cell membrane homogenates are incubated at 24° C. with ^3H-prostaglandin E2 in the absence or presence of the testing compound in assay buffer. Nonspecific binding (Low control: LC) and total binding (High control: HC) are determined in the presence or absence of saturated cold ligand Prostaglandin E2 (PGE2). Specific binding is calculated by subtracting nonspecific binding from total binding. When binding assays are completed, the reaction mixture is filtered rapidly under vacuum through glass fiber filters (GF/C, Packard) presoaked with 0.5% BSA for at least 0.5 hour at room temperature and then washed for 4 times with cold wash buffer (50 mM HEPES pH7.4, 500 mM NaCl, 0.1% BSA) using a 96-sample Perkin Elmer Filtermate Harvester (Unifilter, Packard). The filters are dried for 1 hour at 50 degrees then counted for radioactivity in a scintillation counter using Perkin Elmer Microscint 20 cocktail. ^3H trapped on filter is counted using Perkin Elmer MicroBeta2 Reader. Inhibition is calculated using following equation: % Inhibition=(1−(Assay well−Average_LC)/(Average_HC−Average_LC))×100%. The results are expressed as a percent inhibition of the control radioligand specific binding. Data are analyzed and IC50 is calculated using GraphPad Prism 5 and the model “log(inhibitor) vs. response—Variable slope”. The binding affinity of the compounds is determined by using the Cheng and Prusoff equation Ki=IC50/(1+[radioligand]/Kd).

T1 sequence (P35408 whole entry): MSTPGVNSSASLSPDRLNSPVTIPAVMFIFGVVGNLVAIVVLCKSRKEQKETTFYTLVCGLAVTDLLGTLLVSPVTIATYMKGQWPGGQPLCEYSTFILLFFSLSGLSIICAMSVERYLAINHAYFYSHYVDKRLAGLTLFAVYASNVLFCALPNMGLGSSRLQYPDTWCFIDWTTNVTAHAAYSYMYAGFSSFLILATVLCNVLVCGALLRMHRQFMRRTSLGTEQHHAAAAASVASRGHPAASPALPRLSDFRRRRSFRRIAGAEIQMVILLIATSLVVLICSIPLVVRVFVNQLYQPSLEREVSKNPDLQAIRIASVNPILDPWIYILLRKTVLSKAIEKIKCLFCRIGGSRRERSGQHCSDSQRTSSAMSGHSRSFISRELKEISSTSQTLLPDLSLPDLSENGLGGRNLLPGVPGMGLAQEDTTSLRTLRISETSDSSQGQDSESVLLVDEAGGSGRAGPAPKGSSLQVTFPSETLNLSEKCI

Question: With `CC(C)Cn1nc(C(=O)N[C@H]2CC3(C2)C[C@H](C(=O)O)C3)c2c(Cc3ccc(C(F)(F)F)cc3)cccc21` (stereo partly drawn) [Compound 24, trans-2-[[1-isobutyl-4-[[4-(trifluoromethyl)phenyl]methyl]indazole-3-carbonyl]amino]spiro[3.3]heptane-6-carboxylic acid] as the molecule, how does the pKi read?
Answer: > 7.00

Question: `CC(C)Cn1nc(C(=O)NC23CC(CC(=O)O)(C2)C3)c2c(Cc3ccc(C(F)(F)F)cc3)cccc21` [Compound 25, 2-[3-[[1-isobutyl-4-[[4-(trifluoromethyl)phenyl]methyl]indazole-3-carbonyl]amino]-1-bicyclo[1.1.1]pentanyl]acetic acid] was tested. Which pKi did it give?
Answer: > 7.00

Question: With `O=C(O)c1ccc(C2(NC(=O)c3cnn4cccc(Cc5ccc(C(F)(F)F)cc5)c34)CC2)cc1` [Compound 26, 4-[1-[[4-[[4-(trifluoromethyl)phenyl]methyl]pyrazolo[1,5-a]pyridine-3-carbonyl]amino]cyclopropyl]benzoic acid] as the molecule, how does the pKi read?
Answer: > 7.00

Question: `C[C@@H](NC(=O)c1cnn2cccc(Cc3ccc(C(F)(F)F)cc3)c12)c1ccc(C(=O)O)cc1` [Compound 27, 4-[(1R)-1-[[4-[[4-(trifluoromethyl)phenyl]methyl]pyrazolo[1,5-a]pyridine-3-carbonyl]amino]ethyl]benzoic acid] was tested. Which pKi did it give?
Answer: > 7.00

Question: How did the pKi turn out when `O=C(O)Cc1ccc(NC(=O)c2cnn3cccc(Cc4ccc(C(F)(F)F)cc4)c23)cc1` [Compound 28, 2-[4-[[4-[[4-(trifluoromethyl)phenyl]methyl]pyrazolo[1,5-a]pyridine-3-carbonyl]amino]phenyl]acetic acid] was run?
Answer: 6.30 to 7.00

Question: `CC(C)n1nc2cccc(Cc3ccc(C(F)(F)F)cc3)c2c1C(=O)N[C@@H](C)c1ccc(C(=O)O)cc1` [Compound 29, 4-[(1S)-1-[[2-isopropyl-4-[[4-(trifluoromethyl)phenyl]methyl]indazole-3-carbonyl]amino]ethyl]benzoic acid] was tested. Which pKi did it give?
Answer: > 7.00

Question: With `CC(C)Cn1nc2cccc(Cc3ccc(C(F)(F)F)cc3)c2c1C(=O)N[C@@H](C)c1ccc(C(=O)O)cc1` [Compound 30, 4-[(1S)-1-[[2-isobutyl-4-[[4-(trifluoromethyl)phenyl]methyl]indazole-3-carbonyl]amino]ethyl]benzoic acid] as the molecule, how does the pKi read?
Answer: 6.30 to 7.00

Question: `O=C(Nc1ccc(C2(C(=O)O)CC2)cc1)c1cnn2cccc(Cc3ccc(C(F)(F)F)cc3)c12` [Compound 31, 1-[4-[[4-[[4-(trifluoromethyl)phenyl]methyl]pyrazolo[1,5-a]pyridine-3-carbonyl]amino]phenyl]cyclopropanecarboxylic acid] was tested. Which pKi did it give?
Answer: < 6.30

Question: `O=C(N[C@H]1CC[C@@H](C(=O)O)CC1)c1cnn2cccc(Cc3ccc(C(F)(F)F)cc3)c12` [Compound 32, (1s,4s)-4-[[4-[[4-(trifluoromethyl)phenyl]methyl]pyrazolo[1,5-a]pyridine-3-carbonyl]amino]cyclohexanecarboxylic acid] was tested. Which pKi did it give?
Answer: < 6.30

Question: With `O=C(N[C@H]1CC[C@H](C(=O)O)CC1)c1cnn2cccc(Cc3ccc(C(F)(F)F)cc3)c12` [Compound 33, (1r,4r)-4-[[4-[[4-(trifluoromethyl)phenyl]methyl]pyrazolo[1,5-a]pyridine-3-carbonyl]amino]cyclohexanecarboxylic acid] as the molecule, how does the pKi read?
Answer: 6.30 to 7.00

Question: How did the pKi turn out when `O=C(O)CC1CCC(NC(=O)c2cnn3cccc(Cc4ccc(C(F)(F)F)cc4)c23)CC1` (stereo not drawn) [Compound 34, 2-[4-[[4-[[4-(trifluoromethyl)phenyl]methyl]pyrazolo[1,5-a]pyridine-3-carbonyl]amino]cyclohexyl]acetic acid] was run?
Answer: > 7.00

Question: `O=C(O)CC12CCC(NC(=O)c3cnn4cccc(Cc5ccc(C(F)(F)F)cc5)c34)(CC1)CC2` [Compound 35, 2-(4-(4-(4-(trifluoromethyl)benzyl)pyrazolo[1,5-a]pyridine-3-carboxamido)bicyclo[2.2.2]octan-1-yl)acetic acid] was tested. Which pKi did it give?
Answer: 6.30 to 7.00

Question: How did the pKi turn out when `O=C(NC12CCC(C(=O)O)(CC1)CC2)c1cnn2cccc(Cc3ccc(C(F)(F)F)cc3)c12` [Compound 36, 4-[[4-[[4-(trifluoromethyl)phenyl]methyl]pyrazolo[1,5-a]pyridine-3-carbonyl]amino]bicyclo[2.2.2]octane-1-carboxylic acid] was run?
Answer: 6.30 to 7.00

Question: With `O=C(O)CC1CCC(NC(=O)c2cnn3cccc(Cc4ccc(C(F)(F)F)cc4)c23)C1` (stereo not drawn) [Compound 37, 2-[3-[[4-[[4-(trifluoromethyl)phenyl]methyl]pyrazolo[1,5-a]pyridine-3-carbonyl]amino]cyclopentyl]acetic acid] as the molecule, how does the pKi read?
Answer: > 7.00

Question: How did the pKi turn out when `O=C(O)C[C@H]1CC[C@H](NC(=O)c2cnn3cccc(Cc4ccc(C(F)(F)F)cc4)c23)CC1` [Compound 38, 2-((1r,4r)-4-(4-(4-(trifluoromethyl)benzyl)pyrazolo[1,5-a]pyridine-3-carboxamido)cyclohexyl)acetic acid] was run?
Answer: > 7.00

Question: With `O=C(N[C@H]1CC[C@@H](C(=O)O)C1)c1cnn2cccc(Cc3ccc(C(F)(F)F)cc3)c12` [Compound 39, (1R,3S)-3-[[4-[[4-(trifluoromethyl)phenyl]methyl]pyrazolo[1,5-a]pyridine-3-carbonyl]amino]cyclopentanecarboxylic acid] as the molecule, how does the pKi read?
Answer: > 7.00

Question: With `O=C(NC[C@H]1CC[C@H](C(=O)O)CC1)c1cnn2cccc(Cc3ccc(C(F)(F)F)cc3)c12` [Compound 40, (1r,4r)-4-[[[4-[[4-(trifluoromethyl)phenyl]methyl]pyrazolo[1,5-a]pyridine-3-carbonyl]amino]methyl]cyclohexanecarboxylic acid] as the molecule, how does the pKi read?
Answer: > 7.00

Question: How did the pKi turn out when `CCn1cc(C(=O)N[C@H]2CC3(C2)C[C@H](C(=O)O)C3)c2c(Cc3ccc(C(F)(F)F)cc3)cccc21` (stereo partly drawn) [Compound 41, trans-2-[[1-ethyl-4-[[4-(trifluoromethyl)phenyl]methyl]indole-3-carbonyl]amino]spiro[3.3]heptane-6-carboxylic acid] was run?
Answer: > 7.00

Question: `CCn1cc(C(=O)N[C@@H](C)c2ccc(C(=O)O)cc2)c2c(Cc3ccc(C(F)(F)F)cc3)cccc21` [Compound 42, 4-[(1S)-1-[[1-ethyl-4-[[4-(trifluoromethyl)phenyl]methyl]indole-3-carbonyl]amino]ethyl]benzoic acid] was tested. Which pKi did it give?
Answer: > 7.00

Question: With `C[C@H](NC(=O)c1cn(CCF)c2cccc(Cc3ccc(C(F)(F)F)cc3)c12)c1ccc(C(=O)O)cc1` [Compound 43, 4-[(1S)-1-[[1-(2-fluoroethyl)-4-[[4-(trifluoromethyl)phenyl]methyl]indole-3-carbonyl]amino]ethyl]benzoic acid] as the molecule, how does the pKi read?
Answer: > 7.00

Question: With `O=C(N[C@H]1CC2(C1)C[C@H](C(=O)O)C2)c1cn(CCF)c2cccc(Cc3ccc(C(F)(F)F)cc3)c12` (stereo partly drawn) [Compound 44, trans-2-[[1-(2-fluoroethyl)-4-[[4-(trifluoromethyl)phenyl]methyl]-indole-3-carbonyl]amino]spiro[3.3]heptane-6-carboxylic acid] as the molecule, how does the pKi read?
Answer: > 7.00

Question: How did the pKi turn out when `CCn1cc(C(=O)NC2CC3(C2)CC(C(=O)O)C3)c2c(Cc3ccc(C(F)(F)F)cc3)ccnc21` (stereo not drawn) [Compound 45, trans-2-[[1-ethyl-4-[[4-(trifluoromethyl)phenyl]methyl]-pyrrolo[2,3-b]pyridine-3-carbonyl]amino]spiro[3.3]heptane-6-carboxylic acid] was run?
Answer: > 7.00

Question: With `CCn1cc(C(=O)N[C@@H](C)c2ccc(C(=O)O)cc2)c2c(Cc3ccc(C(F)(F)F)cc3)ccnc21` [Compound 46, 4-[(1S)-1-[[1-ethyl-4-[[4-(trifluoromethyl)phenyl]methyl]-pyrrolo[2,3-b]pyridine-3-carbonyl]amino]ethyl]benzoic acid] as the molecule, how does the pKi read?
Answer: > 7.00

Question: With `C[C@H](NC(=O)c1cn(CCF)c2nccc(Cc3ccc(C(F)(F)F)cc3)c12)c1ccc(C(=O)O)cc1` [Compound 47, 4-[(1S)-1-[[1-(2-fluoroethyl)-4-[[4-(trifluoromethyl)phenyl]methyl]pyrrolo[2,3-b]pyridine-3-carbonyl]amino]ethyl]benzoic acid] as the molecule, how does the pKi read?
Answer: > 7.00

Question: How did the pKi turn out when `O=C(NC1CC2(C1)CC(C(=O)O)C2)c1cn(CCF)c2nccc(Cc3ccc(C(F)(F)F)cc3)c12` (stereo not drawn) [Compound 48, trans-2-[[1-(2-fluoroethyl)-4-[[4-(trifluoromethyl)phenyl]methyl]-pyrrolo[2,3-b]pyridine-3-carbonyl]amino]spiro[3.3]heptane-6-carboxylic acid] was run?
Answer: > 7.00

Question: `CC(C(=O)O)c1ccc(NC(=O)c2cnn3cccc(Cc4ccc(C(F)(F)F)cc4)c23)cc1` (stereo not drawn) [Compound 49, 2-[4-[[4-[[4-(trifluoromethyl)phenyl]methyl]pyrazolo[1,5-a]pyridine-3-carbonyl]amino]phenyl]propanoic acid] was tested. Which pKi did it give?
Answer: 6.30 to 7.00

Question: With `O=C(NCC12CCC(C(=O)O)(CC1)C2)c1cnn2cccc(Cc3ccc(C(F)(F)F)cc3)c12` [Compound 50, 4-[[[4-[[4-(trifluoromethyl)phenyl]methyl]pyrazolo[1,5-a]pyridine-3-carbonyl]amino]methyl]norbornane-1-carboxylic acid] as the molecule, how does the pKi read?
Answer: < 6.30
